Among the data in ChEMBL document CHEMBL2062508, “Lasionectrin, a naphthopyrone from a Lasionectria sp” (J Nat Prod, 2012) are IC50 values, retold here.

This test deals with Plasmodium falciparum. As to the kind of experiment: Antiplasmodial activity against Plasmodium falciparum 3D7 infected in human erythrocytes by lactate dehydrogenase assay. It counts as functional, organism-based.

`CCC[C@@H]1C[C@H]2OC(=O)c3c(cc4cc(OC)cc(O)c4c3O)[C@H]2O1` [LASIONECTRIN] had an IC50 of 11 µM.
